In patent US7659394B2 (Pfizer Inc, priority 2004, dated 2010):

What was measured:
[1] = molecular target: T1, human norepinephrine transporter (Homo sapiens, UniProt P23975); test: hNET receptor binding ([125I]-RTI-55 radioligand binding); conditions: membranes of HEK-293 cells transfected with human norepinephrine transporter, IC50 converted to Ki by Cheng-Prusoff, read-out: hNET (Ki)
T1 construct: host or cells: HEK-293
Method in brief: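 Membranes from HEK-293 cells transfected with human NET. Nonspecific binding defined with 10 μM desipramine, duplicates. IC50 by nonlinear regression, converted to Ki with Cheng-Prusoff.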

[2] = molecular target: T2, human seritonin transporter (Homo sapiens, UniProt P31645); test: hSERT receptor binding ([125I]-RTI-55 radioligand binding); conditions: membranes of HEK-293 cells transfected with human seritonin transporter, IC50 converted to Ki by Cheng-Prusoff, read-out: SERT (Ki)
T2 construct: host or cells: HEK-293
T2 sequence (P31645 whole entry): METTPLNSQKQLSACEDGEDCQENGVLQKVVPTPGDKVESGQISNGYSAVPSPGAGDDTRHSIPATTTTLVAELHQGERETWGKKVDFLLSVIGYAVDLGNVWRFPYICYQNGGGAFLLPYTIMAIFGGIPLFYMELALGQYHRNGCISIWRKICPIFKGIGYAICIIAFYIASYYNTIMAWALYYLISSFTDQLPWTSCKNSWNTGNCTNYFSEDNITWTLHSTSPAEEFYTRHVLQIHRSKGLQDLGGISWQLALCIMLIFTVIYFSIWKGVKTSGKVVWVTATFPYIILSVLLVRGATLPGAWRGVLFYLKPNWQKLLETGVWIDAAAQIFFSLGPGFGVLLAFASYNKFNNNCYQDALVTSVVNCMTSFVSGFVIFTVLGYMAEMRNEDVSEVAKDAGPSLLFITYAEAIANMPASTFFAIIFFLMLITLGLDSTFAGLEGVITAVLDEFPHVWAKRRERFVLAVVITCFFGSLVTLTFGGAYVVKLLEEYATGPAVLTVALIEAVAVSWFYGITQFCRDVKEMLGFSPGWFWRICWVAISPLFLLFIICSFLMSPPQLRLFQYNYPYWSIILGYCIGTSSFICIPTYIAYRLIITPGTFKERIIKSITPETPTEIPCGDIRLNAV

T1 sequence (P23975 whole entry): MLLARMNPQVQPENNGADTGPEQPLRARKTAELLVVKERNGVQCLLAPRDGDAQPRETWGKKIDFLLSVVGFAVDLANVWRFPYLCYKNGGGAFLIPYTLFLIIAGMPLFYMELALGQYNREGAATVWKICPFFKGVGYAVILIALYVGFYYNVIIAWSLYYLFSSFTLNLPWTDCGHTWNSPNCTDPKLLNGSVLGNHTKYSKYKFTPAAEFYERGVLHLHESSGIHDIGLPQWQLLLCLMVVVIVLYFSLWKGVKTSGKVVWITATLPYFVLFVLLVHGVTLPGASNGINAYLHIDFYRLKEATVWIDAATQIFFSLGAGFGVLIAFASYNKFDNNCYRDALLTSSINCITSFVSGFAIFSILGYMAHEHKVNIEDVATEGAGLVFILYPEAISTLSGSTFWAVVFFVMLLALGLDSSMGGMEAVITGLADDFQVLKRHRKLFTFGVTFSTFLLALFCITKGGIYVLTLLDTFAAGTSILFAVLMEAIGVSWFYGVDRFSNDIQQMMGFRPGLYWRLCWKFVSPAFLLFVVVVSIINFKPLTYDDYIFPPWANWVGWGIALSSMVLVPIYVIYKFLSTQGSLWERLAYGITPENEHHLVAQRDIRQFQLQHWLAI

Row | SMILES | Ki [1] [nM] | melting point [°C] | Ki [2] [nM]
1 | Oc1ccccc1O[C@@H](c1ccccc1)[C@@H]1CNCCO1 [Example 50, (2S,3S)-2-(Morpholin-2-yl-phenyl-methoxy)-phenol] | 5.2 | 156 to 158 | 6260
2 | CC(C)Cc1ncccc1O[C@@H](c1ccccc1)[C@@H]1CNCCO1 [Example 182, (2S)-2-[(S)-[(2-isobutylpyridin-3-yl)oxy](phenyl)methyl]morpholine] | 31 | – | 7080
3 | CC(C)c1cccc(F)c1O[C@@H](c1ccccc1)[C@@H]1CNCCO1 [Example 183, (2S)-2-[(S)-(2-fluoro-6-isopropylphenoxy)(phenyl)methyl]morpholine] | 7 | – | 5340
4 | COc1cccc([C@H](Oc2c(F)cccc2Br)[C@@H]2CNCCO2)n1 [Example 185, (2S)-2-[(S)-(2-bromo-6-fluorophenoxy)(6-methoxypyridin-2-yl)methyl]morpholine] | 8 | – | 201
5 | Fc1cccc(Br)c1O[C@@H](c1ccccn1)[C@@H]1CNCCO1 [Example 186, (2S)-2-[(S)-(2-bromo-6-fluorophenoxy)(pyridin-2-yl)methyl]morpholine] | 8 | – | 1260
6 | COc1cccc([C@H](Oc2ccccc2Br)[C@@H]2CNCCO2)n1 [Example 187, (2S)-2-[(S)-(2-bromophenoxy)(6-methoxypyridin-2-yl)methyl]morpholine] | 15 | – | 224
7 | COc1cccc([C@H](Oc2c(F)cccc2OC)[C@@H]2CNCCO2)n1 [Example 188, (2S)-2-[(S)-(2-fluoro-6-methoxyphenoxy) (6-methoxypyridin-2-yl)methyl]morpholine] | 14 | – | 2210
8 | CCOc1ncccc1OC(C(C)C)[C@@H]1CNCCO1 (stereo partly drawn) [Example 189, (2S)-2-{1-[(2-ethoxypyridin-3-yl)oxy]-2-methylpropyl}morpholine] | 147 | – | 5220
9 | Cc1coc(C(Oc2ccccc2C2CC2)[C@@H]2CNCCO2)n1 (stereo partly drawn) [Example 190, (2S)-2-[(2-cyclopropylphenoxy)(4-methyl-1,3-oxazol-2-yl)methyl]morpholine] | 6 | – | 4340
10 | CCC[C@H](Oc1cccnc1OCC)[C@@H]1CNCCO1 [Example 191, (2S)-2-{(1S)-1-[(2-ethoxypyridin-3-yl)oxy]butyl}morpholine] | 6 | – | 5830
11 | c1ccc([C@H](Oc2cccnc2OCC2CC2)[C@@H]2CNCCO2)cc1 [Example 192, (2S)-2-[(S)-{[2-(cyclopropylmethoxy)pyridin-3-yl]oxy}(phenyl)methyl]morpholine] | 38 | – | 1880
12 | Fc1cccc(C(F)(F)F)c1O[C@@H](c1ccccc1)[C@@H]1CNCCO1 [Example 193, (2S)-2-[(S)-[2-fluoro-6-(trifluoromethyl)phenoxy](phenyl)methyl]morpholine] | 3 | – | 707
13 | Fc1cccc(OC(F)(F)F)c1O[C@@H](c1ccccc1)[C@@H]1CNCCO1 [Example 194, (2S)-2-[(S)-[2-fluoro-6-(trifluoromethoxy)phenoxy](phenyl)methyl]morpholine] | 9 | – | 2560
14 | CCOc1ncccc1O[C@@H](Cc1ccccc1)[C@@H]1CNCCO1 [Example 197, (2S)-2-{(1S)-1-[(2-ethoxypyridin-3-yl)oxy]-2-phenylethyl}morpholine] | 18 | – | 811
15 | CSc1cc(F)ccc1O[C@@H](c1ccccc1)[C@@H]1CNCCO1 [Example 198, (2S)-2-[(S)-[4-fluoro-2-(methylthio)phenoxy](phenyl)methyl]morpholine] | 30 | – | 62
16 | COc1cccc([C@H](Oc2c(F)cccc2F)[C@@H]2CNCCO2)n1 [Example 199, (2S)-2-[(S)-(2,6-difluorophenoxy)(6-methoxypyridin-2-yl)methyl]morpholine] | 8 | – | 2940
17 | c1cnc(OC[C@H]2CNCCO2)c(OC[C@H]2CNCCO2)n1 [Example 200, (2R,2′R)-2,2′-[pyrazine-2,3-diylbis(oxymethylene)]dimorpholine] | 9550 | – | ≥ 10000
